# Assay results as given in patent US5086176A, “Tricyclic fused adenine derivatives” (priority 1991, dated 1992).
# Where two headings read alike, the source gives them in different places.
# Legend:
# Adenosine A-1 receptor [1] = molecular target: T1, Adenosine A-1 receptor (Rattus norvegicus, UniProt P25099); test: Test for affinity for brain adenosine A-1 receptor binding sites ([3H]cyclohexyladenosine displacement); conditions: ratio of A-2 Ki to A-1 Ki
# T1 sequence (P25099 1-326): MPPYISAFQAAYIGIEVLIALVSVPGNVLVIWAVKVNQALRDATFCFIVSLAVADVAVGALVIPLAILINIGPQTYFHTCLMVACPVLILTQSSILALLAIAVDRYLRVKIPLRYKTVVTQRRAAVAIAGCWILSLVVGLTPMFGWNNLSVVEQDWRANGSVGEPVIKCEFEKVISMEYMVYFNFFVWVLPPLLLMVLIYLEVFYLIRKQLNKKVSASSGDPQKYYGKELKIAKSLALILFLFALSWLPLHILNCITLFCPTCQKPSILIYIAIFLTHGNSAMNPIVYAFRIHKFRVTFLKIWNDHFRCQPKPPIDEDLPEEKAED
# A-2 receptors = conditions: rank order; cited from earlier work
# Adenosine A-1 receptor [2] = molecular target: T1, Adenosine A-1 receptor
# A-1 receptors = conditions: cited from earlier work
# [3] = test system: effects of adenosine analogs on heart rate and blood pressure; conditions: heart rate compared with blood pressure; cited from earlier work
smiles,measurement,setting,value
"CCCOC1=Nc2c(cnn2-c2ccccc2)C2=N[C@H](C)[C@@H](c3ccccc3)N12 [Compound 7, (2R-trans)-2,7-dihydro-2-methyl-3,7-diphenyl-5-propoxy-3H-Imidazo-[1,2-c]pyrazolo[4,3-s]pyrimidine]",A-2 Ki/A-1 Ki,Adenosine A-1 receptor [1],1.17
"CCNC(=O)[C@H]1O[C@@H](n2cnc3c(N)ncnc32)[C@H](O)[C@@H]1O [NECA, N-5'-ethylcarboxamidoadenosine]",order of potency at A-2 receptors,A-2 receptors,NECA>2-chloroadenosine>R-PIA>CHA
Nc1nc(Cl)nc2c1ncn2[C@@H]1O[C@H](CO)[C@@H](O)[C@H]1O [2-chloroadenosine],order of potency at A-2 receptors,A-2 receptors,NECA>2-chloroadenosine>R-PIA>CHA
"C1=Nc2c(cnn2-c2ccccc2)C2=N[C@H](Cc3ccccc3)CN12 [Compound 3, (R)-2,7-dihydro-7-phenyl-2-(phenylmethyl)-3H-imidazo-[1,2-c]pyrazolo-[4,3-e]pyrimidine]",A-2 Ki/A-1 Ki,Adenosine A-1 receptor [1],13.20
"C1=Nc2c(ncn2-c2ccccc2)C2=N[C@H](Cc3ccccc3)CN12 [Compound 6, (R)-7,8-dihydro-3-phenyl-8-(phenylmethyl)-3H-diimidazo[1,2-c: 4',5'-e]pyrimidine]",A-2 Ki/A-1 Ki,Adenosine A-1 receptor [2],16.40
CCCn1c(=O)c2[nH]c(-c3ccc(OCC(=O)NCCN)cc3)nc2n(CCC)c1=O [XAC],higher affinity for A-1 adenosine receptors,A-1 receptors; A-1 Ki compared with Ki at A-2 receptors of the brain slice assay,40 fold
same,antagonizing the effects of adenosine analogs on heart rate versus blood pressure,[3],much more potent in antagonizing the effects of adenosine analogs on heart rate than on blood pressure
CCCn1c(=O)c2[nH]c(-c3ccc(OCC(=O)O)cc3)nc2n(CCC)c1=O [XCC],adenosine receptor selectivity,"A-1 receptors; A-1 versus A-2, in vitro",non-selective
